Laboratory results reported in US20100298141A1, “SUBSTITUTED PYRIDINE N-OXIDE HERBICIDES” (E. I. DU PONT DE NEMOURS AND COMPANY, priority 2007, published 2010).

Experiments:
common ragweed = experiment: Test C pre-/postemergence test; format: in vivo, Ambrosia elation; settings: for Plant response rating (0 to 100), Ragweed / Plant response rating, Ragweed: Postemergence; for Plant response rating, Ragweed: scale 0 to 100, 0 no effect, 100 complete control
Method in brief: (§1)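 Compounds in a non-phytotoxic solvent with surfactant applied preemergence to seeded pots and, at the same time, postemergence to plants 2–18 cm tall (1- to 4-leaf stage). Paddy tests: pots flooded to 3 cm, compound applied into the water, depth held throughout.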

Surinam grass = experiment: Test C pre-/postemergence test; format: in vivo, Brachiaria decumbens; settings: for Plant response rating (0 to 100), Surinam Grass: Postemergence
Method in brief: as §1

rice = experiment: Test C flooded paddy test; format: in vivo, Oryza sativa; settings: Flood
Method in brief: (§2)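 Test compounds are applied straight into paddy water held 3 cm above the soil surface, with that flood maintained for the whole test. After 13 to 15 days in the greenhouse, each species is scored visually relative to controls.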

crabgrass = experiment: Test C pre-/postemergence test; format: in vivo, Digitaria sanguinalis
Method in brief: as §1

barnyardgrass = experiment: Test A pre-/postemergence greenhouse test; format: in vivo, Echinochloa crus-galli; settings: for Plant response rating, Barnyardgrass: 0 to 100 scale where 0 is no effect and 100 is complete control; for Barnyardgrass plant response rating: 0 to 100 scale
Method in brief: (§3)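 Greenhouse herbicide screen, pre- and postemergence in parallel. Soil: loam plus sand. Formulation: non-phytotoxic solvent mix with surfactant. Postemergence stage: one to two leaves, 2–10 cm height. Evaluation: visual injury, compared with untreated controls, about 10 days after treatment.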

green foxtail = experiment: Test C pre-/postemergence test; format: in vivo, Setaria viridis
Method in brief: as §1

downy brome = experiment: Test C pre-/postemergence test; format: in vivo, Bromus tectorum
Method in brief: as §1

lambsquarters = experiment: Test C pre-/postemergence test; format: in vivo, Chenopodium album; settings: for Lambsquarters plant response rating: preemergence, scale 0 (no effect) to 100 (complete control)
Method in brief: as §1

velvetleaf [1] = experiment: Test C pre-/postemergence test; format: in vivo, Abutilon theophrasti
Method in brief: as §1

velvetleaf [2] = experiment: Test A pre-/postemergence greenhouse test; format: in vivo, Abutilon theophrasti; settings: for Plant response rating, Velvetleaf: 0 to 100 scale where 0 is no effect and 100 is complete control; for Velvetleaf plant response rating: 0 to 100 scale
Method in brief: as §3

kochia = experiment: Test C pre-/postemergence test; format: in vivo, Kochia scoparia
Method in brief: as §1

giant foxtail = experiment: Test C pre-/postemergence test; format: in vivo, Setaria faberii
Method in brief: as §1

johnsongrass = experiment: Test C pre-/postemergence test; format: in vivo, Sorghum halepense
Method in brief: as §1

duck salad = experiment: Test C flooded paddy test; format: in vivo, Heteranthera limosa; settings: Flood
Method in brief: as §2

eastern black nightshade = experiment: Test C pre-/postemergence test; format: in vivo, Solanum ptycanthum
Method in brief: as §1

wild oat = experiment: Test C pre-/postemergence test; format: in vivo, Avena fatua
Method in brief: as §1

redroot pigweed = experiment: Test A pre-/postemergence greenhouse test; format: in vivo, Amaranthus retroflexus; settings: for Plant response rating, Pigweed: 0 to 100 scale where 0 is no effect and 100 is complete control; for Pigweed plant response rating: 0 to 100 scale
Method in brief: as §3

cocklebur = experiment: Test C pre-/postemergence test; format: in vivo, Xanthium strumarium
Method in brief: as §1

[3] = 62 g ai/ha, Preemergence, scale 0 to 100
[4] = 125 g ai/ha, preemergence, scale 0 (no effect) to 100 (complete control)
[5] = preemergence, 250 g ai/ha, scale 0 (no effect) to 100 (complete control)
[6] = Preemergence, 31 g ai/ha, scale 0 to 100 (0 no effect, 100 complete control)
[7] = 62 g ai/ha, scale 0 to 100 (0 no effect, 100 complete control)
[8] = 250 g ai/ha, scale 0 to 100, 0 no effect, 100 complete control, 13 to 15 days
[9] = Postemergence, 125 g ai/ha, scale 0 to 100, 0 no effect, 100 complete control
[10] = Postemergence, 250 g ai/ha, scale 0 to 100, 0 no effect, 100 complete control
[11] = Postemergence, 500 g ai/ha, 0 is no effect, 100 is complete control
[12] = Preemergence, 125 g ai/ha, 0 no effect, 100 complete control

## CC(Oc1c(CS(=O)(=O)c2cccc[n+]2[O-])c(C(F)(F)F)nn1C)C(F)(F)F (centres unmarked) [Compound 82]
Common ragweed; [3]
  Ragweed plant response rating: 0
Common ragweed; [4]
  Ragweed plant response rating: 100
Common ragweed; 31 g ai/ha
  Plant response rating (0 to 100), Ragweed: 0
Common ragweed; 62 g ai/ha
  Plant response rating (0 to 100), Ragweed: 30
Common ragweed; 125 g ai/ha
  Plant response rating, Ragweed: 35
Common ragweed; 250 g ai/ha
  Plant response rating, Ragweed: 50
Common ragweed; [5]
  Ragweed plant response rating: 100
Surinam grass; [3]
  Surinam Grass plant response rating: 80
Surinam grass; [4]
  Surinam Grass plant response rating: 90
Surinam grass; 31 g ai/ha
  Plant response rating (0 to 100), Surinam Grass: 0
Surinam grass; 62 g ai/ha
  Plant response rating (0 to 100), Surinam Grass: 0
Surinam grass; [6]
  Plant response rating, Surinam Grass: 70
Surinam grass; [5]
  Surinam Grass plant response rating: 90
rice; [7]
  Plant response rating, Rice: 0
rice; [8]
  Plant response rating, Rice: 60
crabgrass; [3]
  Crabgrass, Large plant response rating: 85
crabgrass; [4]
  Crabgrass, Large plant response rating: 98
crabgrass; Postemergence, 31 g ai/ha
  Plant response rating (0 to 100), Crabgrass, Large: 0
crabgrass; Postemergence, 62 g ai/ha
  Plant response rating (0 to 100), Crabgrass, Large: 0
crabgrass; [9]
  Plant response rating, Crabgrass, Large: 0
crabgrass; [10]
  Plant response rating, Crabgrass, Large: 10
crabgrass; [6]
  Plant response rating, Crabgrass, Large: 85
crabgrass; [5]
  Crabgrass, Large plant response rating: 100
barnyardgrass; Postemergence, 125 g ai/ha
  Plant response rating, Barnyardgrass: 70
barnyardgrass; [11]
  Barnyardgrass plant response rating: 80
barnyardgrass; [12]
  Barnyardgrass plant response rating: 90
barnyardgrass; Preemergence, 500 g ai/ha
  Plant response rating, Barnyardgrass: 100
Green foxtail; [3]
  Foxtail, Green plant response rating: 95
Green foxtail; [4]
  Foxtail, Green plant response rating: 98
Green foxtail; Postemergence, 31 g ai/ha
  Plant response rating (0 to 100), Foxtail, Green: 0
Green foxtail; Postemergence, 62 g ai/ha
  Plant response rating (0 to 100), Foxtail, Green: 40
Green foxtail; [9]
  Plant response rating, Foxtail, Green: 60
Green foxtail; [10]
  Plant response rating, Foxtail, Green: 80
Green foxtail; [6]
  Plant response rating, Foxtail, Green: 95
Green foxtail; [5]
  Foxtail, Green plant response rating: 100
Downy brome; [3]
  Bromegrass, Downy plant response rating: 60
Downy brome; [4]
  Bromegrass, Downy plant response rating: 80
Downy brome; Postemergence, 31 g ai/ha
  Plant response rating (0 to 100), Bromegrass, Downy: 0
Downy brome; Postemergence, 62 g ai/ha
  Plant response rating (0 to 100), Bromegrass, Downy: 0
Downy brome; [9]
  Plant response rating, Bromegrass, Downy: 0
Downy brome; [10]
  Plant response rating, Bromegrass, Downy: 0
Downy brome; [6]
  Plant response rating, Bromegrass, Downy: 50
Downy brome; [5]
  Bromegrass, Downy plant response rating: 100
lambsquarters; 125 g ai/ha
  Lambsquarters plant response rating: 0
lambsquarters; Postemergence, 31 g ai/ha
  Plant response rating (0 to 100), Lambsquarters: 0
lambsquarters; Postemergence, 62 g ai/ha
  Plant response rating (0 to 100), Lambsquarters: 0
lambsquarters; [10]
  Plant response rating, Lambsquarters: 0
lambsquarters; 250 g ai/ha
  Lambsquarters plant response rating: 100
Velvetleaf [1]; [3]
  Velvetleaf plant response rating: 80
Velvetleaf [1]; [4]
  Velvetleaf plant response rating: 80
Velvetleaf [1]; Postemergence, 31 g ai/ha
  Plant response rating (0 to 100), Velvetleaf: 0
Velvetleaf [1]; Postemergence, 62 g ai/ha
  Plant response rating (0 to 100), Velvetleaf: 0
Velvetleaf [1]; [9]
  Plant response rating, Velvetleaf: 0
Velvetleaf [1]; [10]
  Plant response rating, Velvetleaf: 20
Velvetleaf [1]; [6]
  Plant response rating, Velvetleaf: 0
Velvetleaf [1]; [5]
  Velvetleaf plant response rating: 100
Velvetleaf [2]; Postemergence, 125 g ai/ha
  Plant response rating, Velvetleaf: 10
Velvetleaf [2]; [11]
  Velvetleaf plant response rating: 80
Velvetleaf [2]; [12]
  Velvetleaf plant response rating: 60
Velvetleaf [2]; Preemergence, 500 g ai/ha
  Plant response rating, Velvetleaf: 100
kochia; [3]
  Kochia plant response rating: 100
kochia; [4]
  Kochia plant response rating: 100
kochia; Postemergence, 31 g ai/ha
  Plant response rating (0 to 100), Kochia: 0
kochia; Postemergence, 62 g ai/ha
  Plant response rating (0 to 100), Kochia: 0
kochia; [9]
  Plant response rating, Kochia: 0
kochia; [10]
  Plant response rating, Kochia: 0
kochia; [6]
  Plant response rating, Kochia: 100
kochia; [5]
  Kochia plant response rating: 100
Giant foxtail; [3]
  Foxtail, Giant plant response rating: 85
Giant foxtail; [4]
  Foxtail, Giant plant response rating: 100
Giant foxtail; Postemergence, 31 g ai/ha
  Plant response rating (0 to 100), Foxtail, Giant: 0
Giant foxtail; Postemergence, 62 g ai/ha
  Plant response rating (0 to 100), Foxtail, Giant: 0
Giant foxtail; [9]
  Plant response rating, Foxtail, Giant: 40
Giant foxtail; [10]
  Plant response rating, Foxtail, Giant: 40
Giant foxtail; [6]
  Plant response rating, Foxtail, Giant: 70
Giant foxtail; [5]
  Foxtail, Giant plant response rating: 100
johnsongrass; [3]
  Johnsongrass plant response rating: 80
johnsongrass; [4]
  Johnsongrass plant response rating: 80
johnsongrass; Postemergence, 31 g ai/ha
  Plant response rating (0 to 100), Johnsongrass: 0
johnsongrass; Postemergence, 62 g ai/ha
  Plant response rating (0 to 100), Johnsongrass: 0
johnsongrass; [9]
  Plant response rating, Johnsongrass: 10
johnsongrass; [10]
  Plant response rating, Johnsongrass: 40
johnsongrass; [6]
  Plant response rating, Johnsongrass: 40
johnsongrass; [5]
  Johnsongrass plant response rating: 100
Duck salad; [7]
  Plant response rating, Ducksalad: 60
Duck salad; [8]
  Plant response rating, Ducksalad: 80
Eastern black nightshade; [3]
  Nightshade plant response rating: 40
Eastern black nightshade; [4]
  Nightshade plant response rating: 80
Eastern black nightshade; [6]
  Plant response rating, Nightshade: 0
Eastern black nightshade; [5]
  Nightshade plant response rating: 100
Wild oat; [3]
  Oat, Wild plant response rating: 60
Wild oat; [4]
  Oat, Wild plant response rating: 80
Wild oat; Postemergence, 31 g ai/ha
  Plant response rating (0 to 100), Oat, Wild: 0
Wild oat; Postemergence, 62 g ai/ha
  Plant response rating (0 to 100), Oat, Wild: 0
Wild oat; [9]
  Plant response rating, Oat, Wild: 0
Wild oat; [10]
  Plant response rating, Oat, Wild: 40
Wild oat; [6]
  Plant response rating, Oat, Wild: 35
Wild oat; [5]
  Oat, Wild plant response rating: 80
Redroot pigweed; Postemergence, 125 g ai/ha
  Plant response rating, Pigweed: 30
Redroot pigweed; [11]
  Pigweed plant response rating: 70
Redroot pigweed; [12]
  Pigweed plant response rating: 40
Redroot pigweed; Preemergence, 500 g ai/ha
  Plant response rating, Pigweed: 100
cocklebur; [3]
  Cocklebur plant response rating: 0
cocklebur; [4]
  Cocklebur plant response rating: 0
cocklebur; Postemergence, 31 g ai/ha
  Plant response rating (0 to 100), Cocklebur: 0
cocklebur; Postemergence, 62 g ai/ha
  Plant response rating (0 to 100), Cocklebur: 0
cocklebur; [9]
  Plant response rating, Cocklebur: 0
cocklebur; [10]
  Plant response rating, Cocklebur: 0
cocklebur; [6]
  Plant response rating, Cocklebur: 0
cocklebur; [5]
  Cocklebur plant response rating: 0
